From ChEMBL document CHEMBL3739282, “An efficient green synthesis of 2-arylbenzothiazole analogues as potent antibacterial and anticancer agents” (Bioorg Med Chem Lett, 2016)
In brackets after ≈: the same amount, converted by molar mass.

Columns and labels:
MCF7 = experiment: Cytotoxicity against human MCF7 cells assessed as cell death after 24 hrs by MTT assay; format: functional, cell-based; settings: MCF7, 24 h
HeLa = experiment: Cytotoxicity against human HeLa cells assessed as cell death after 24 hrs by MTT assay; format: functional, cell-based
Staphylococcus aureus = experiment: Antibacterial activity against Staphylococcus aureus assessed as growth inhibition incubated for 24 hrs at 37 degC by agar well diffusion method; format: functional
Escherichia coli = experiment: Antibacterial activity against Escherichia coli assessed as growth inhibition incubated for 24 hrs at 37 degC by agar well diffusion method; format: functional
Bacillus subtilis = experiment: Antibacterial activity against Bacillus subtilis assessed as growth inhibition incubated for 24 hrs at 37 degC by agar well diffusion method; format: functional
Salmonella = experiment: Antibacterial activity against Salmonella assessed as growth inhibition incubated for 24 hrs at 37 degC by agar well diffusion method; format: functional
[1] = Stability of the compound in GSH at 10^-5 M after 48 hrs by UV-vis spectroscopic analysis; format: physicochemical; settings: 10 µM

Molecule | IC50 (MCF7) [µM] | IC50 (HeLa) [µM] | MIC (Staphylococcus aureus) [µg/mL] | MIC (Escherichia coli) [µg/mL] | MIC (Bacillus subtilis) [µg/mL] | MIC (Salmonella) [µg/mL] | Stability [1]
c1ccc2[nH]c(-c3nc4ccccc4s3)cc2c1 | 9.26 | 15.2 | 3.12 (≈ 12.5 µM) | 3.12 (≈ 12.5 µM) | 3.12 (≈ 12.5 µM) | 3.12 (≈ 12.5 µM) | –
Fc1ccc(-c2nc3ccccc3s2)cc1 | 9.85 | 16.6 | 6.25 (≈ 27.3 µM) | 6.25 (≈ 27.3 µM) | 12.5 (≈ 54.5 µM) | 12.5 (≈ 54.5 µM) | –
c1ccc(-c2nc3ccccc3s2)nc1 | 20.4 | 27.5 | 6.25 (≈ 29.4 µM) | 12.5 (≈ 58.9 µM) | 12.5 (≈ 58.9 µM) | 12.5 (≈ 58.9 µM) | Stable
c1ccc2cc(-c3nc4ccccc4s3)ccc2c1 | 42.3 | 48.2 | > 200 | > 200 | > 200 | > 200 | –
c1csc(-c2nc3ccccc3s2)c1 | 22.6 | 28.5 | 12.5 (≈ 57.5 µM) | 12.5 (≈ 57.5 µM) | 25 (≈ 115 µM) | 25 (≈ 115 µM) | –
Cc1ccccc1-c1nc2ccccc2s1 | 20.4 | 28.2 | 100 (≈ 444 µM) | 100 (≈ 444 µM) | 100 (≈ 444 µM) | 100 (≈ 444 µM) | –
COc1cccc(-c2nc3ccccc3s2)c1O | 28.6 | 32.6 | > 200 | > 200 | > 200 | > 200 | –
c1ccc(-c2nc3ccccc3s2)cc1 [2-PHENYLBENZO[D]THIAZOLE] | 18.5 | 22.1 | 50 (≈ 237 µM) | 50 (≈ 237 µM) | 25 (≈ 118 µM) | 25 (≈ 118 µM) | Stable
GENTAMICIN | – | – | 1 | 2 | 2 | 2 | –
O=C(O)c1cn(C2CC2)c2cc(N3CCNCC3)c(F)cc2c1=O [CIPROFLOXACIN] | – | – | – | – | 25 (≈ 75.4 µM) | 10 (≈ 30.2 µM) | –
c1coc(-c2nc3ccccc3s2)c1 | 17.6 | 22.6 | 50 (≈ 248 µM) | 50 (≈ 248 µM) | 50 (≈ 248 µM) | 50 (≈ 248 µM) | –
Oc1ccccc1-c1nc2ccccc2s1 | 26.8 | 30.6 | 100 (≈ 440 µM) | 100 (≈ 440 µM) | 100 (≈ 440 µM) | 100 (≈ 440 µM) | –
Brc1cccc(-c2nc3ccccc3s2)c1 | 10.5 | 17.4 | 12.5 (≈ 43.1 µM) | 12.5 (≈ 43.1 µM) | 12.5 (≈ 43.1 µM) | 12.5 (≈ 43.1 µM) | –
NC[C@H]1O[C@H](O[C@H]2[C@H](O)[C@@H](O[C@H]3O[C@H](CO)[C@@H](O)[C@H](N)[C@H]3O)[C@H](N)C[C@@H]2N)[C@H](N)C[C@@H]1O [TOBRAMYCIN] | – | – | 1.5 (≈ 3.21 µM) | 3 (≈ 6.42 µM) | 3 (≈ 6.42 µM) | 3 (≈ 6.42 µM) | –
Clc1ccccc1-c1nc2ccccc2s1 | 10.7 | 18.2 | 12.5 (≈ 50.9 µM) | 12.5 (≈ 50.9 µM) | 12.5 (≈ 50.9 µM) | 12.5 (≈ 50.9 µM) | –
